# Source: patent US20230114728A1 (Venatorx Pharmaceuticals, Inc., priority 2019, published 2023)
# Experiments:
# E. coli K12 PBP3 = target: T1, E. coli K12 PBP3 (Escherichia coli, UniProt P0AD68); assay: biochemical; format: binding
# T1 construct: made in house
# From the text: Example I: Experimental Method for Penicillin-Binding Protein Binding Assays with Bocillin-FL Via Fluorescence Polarization
# To determine the ability of boronic acid-based test PBP inhibitors to bind Penicillin Binding Proteins (PBPs), Bocillin-FL (fluorescently-labeled penicillin V; ThermoFisher Scientific) was used in a fluorescence polarization (FP) competition binding assay to assess inhibitor binding to PBP2, PBP3 or PBP4 from Escherichia coli (K12), PBP3 from Pseudomonas aeruginosa (PA01), PBP1a, PBP2 and PBP3 from Acinetobacter baumannii (ATCC 19606), and PBP2 from Neiserria gonorrheae (FA19). PBPs were cloned and purified as described previously (E. coli PBPs, King, D. T, et al., ACS Infectious Diseases 2015, 1, 175-184; P. aeruginosa PBP3, Han et. al., PNAS 2010, 107 (51), 22002-22007; A. baumannii PBPs, Penwell et. al., Antimicrob. Agents Chemother. 2015, 59 (3), 1680-1689; N. gonorrhoeae PBP2, Singh et. al., J Biol. Chem. 2019, 294 (38), 14020-14032). To establish assay conditions for competition binding, enzyme titration/saturation binding experiments were initially performed. Bocillin-FL was prepared at 0.2 μM in a buffer comprised of 50 mM Hepes (pH 8.0), 300 mM NaCl and 5% (v/v) glycerol for reactions with E. coli, P. aeruginosa and N. gonorrhoeae PBPs, and 25 mM Tris (pH 8.0), 200 mM NaCl and 10% (v/v) glycerol and 0.005% (v/v) Tween 20 for reactions with A. baumannii PBPs. Saturation binding was performed by mixing 40 μl of PBP solutions ranging in concentrations from 0-24 μM with 40 μl of the 0.2 μM Bocillin-FL solution, in individual wells of a black 384-well microplate. FP was measured immediately upon mixing (Excitation, 490 nm; Emission, 520 nm; g-factor, 0.96), using a Cytation3 (BioTek) microplate reader and measured continuously for up to 120 minutes. […] The competition binding assay (80 μl final volume) was validated using beta-lactams and PBPs at final concentrations of: 1.5 μM, E. coli PBP3; 0.75 μM, P. aeruginosa PBP3; 1 μM A. baumannii PBP1a; 2.5 μM A. baumannii PBP2; 0.2 μM A. baumannii PBP3; and […] N. gonorrhoeae PBP2. Bocillin-FL was at 0.1 μM (0.05 μM with A. baumannii PBP1a) and beta-lactam concentrations ranged from 0-1000 μM. […] Bocillin-FL was added and the FP immediately measured for up to 60 minutes (90 minutes for E. coli PBP2). […] The beta-lactam potency was reported as the concentration of beta-lactam required to reduce the amount of PBP bound-Bocillin-FL by 50% (EC50). […] Binding assays for boronic acid PBP inhibitors were performed in an identical fashion for the respective PBPs
# P. aeruginosa ATCC 27853 = assay: Broth microdilution MIC in CAMHB; format: cell-based; settings: Pseudomonas aeruginosa, ATCC27853; MHB; read-out: Minimum Inhibitory Concentration, P. aeruginosa ATCC 27853
# Method: (§1) Example III: In Vitro Antibacterial Assays
# (§2) To determine the ability of test compounds to inhibit the growth of bacterial strains, classic cell based broth microdilution minimum inhibitory concentration (MIC) assays were employed. MIC assays are performed according to CLSI methods except where otherwise noted (CLSI, 2018 and CLSI, 2019). The reference type strain E. coli ATCC 25922; the wild-type parent strain E. coli AG100; the hyper-permeable E. coli 901C and E. coli D22; and the E. coli AG100A strain lacking the acrAB efflux pump encoding genes were used to determine the ability of the PBP inhibitors to penetrate the outer membrane of gram-negative bacteria and inhibit bacterial growth. […] The P. aeruginosa ATCC 27853 and A. baumannii ATCC 19606, along with the hyper-permeable P. aeruginosa ATCC 35151 and an engineered efflux pump-compromised strain of P. aeruginosa (ΔmexAB-oprM) were used to determine the ability of PBP inhibitors to penetrate the outer membrane of P. aeruginosa and A. baumannii and assess antibacterial activity against these important gram-negative organisms.
# (§3) Briefly, cryo-preserved bacterial cultures of challenge strains are streaked for isolation on appropriate agar medium, in this case cation-adjusted Mueller Hinton agar. Following incubation to allow growth of the colonies, plates are sealed with parafilm and stored refrigerated for up to two weeks. For preparation of assay inoculum and to ensure low variability, at least 5 colonies are picked from the agar plates with an inoculating loop and aseptically transferred to a culture tube containing 3 mL of cation-adjusted Mueller Hinton broth (CAMHB). The broth culture is grown for 3-5 hours at 37° C. with shaking at 200 rpm. Meanwhile, 2-fold serial dilutions of test compounds are conducted in a 96-well plate with a final volume of 75 μL per well at 2-fold the final desired concentration. After the dilution plates are set up the growing cultures are then diluted in a cuvette containing CAMHB and the optical density is measured at 600 nm. The inoculum is diluted such that 75 μL of this culture in CAMHB results in a starting bacterial concentration of 2-8×10^5 CFU/mL when added to the dilution plates. The plates are incubated for 16-20 hours for Enterobacteriaceae and Pseudomonas and 20-24 hours for Acinetobacter at 37° C. The MIC values are read visually as the lowest concentration well with no bacterial growth.
# [1] = tested on: K. pneumoniae SI-117 producing VIM-1; assay: Broth microdilution MIC in CAMHB; format: cell-based; settings: Klebsiella pneumoniae, read-out: Minimum Inhibitory Concentration, K. pneumoniae SI-117
# Method: as §1, §2, §3
# [2] = tested on: P. aeruginosa (ΔmexAB-oprM); assay: Broth microdilution MIC in CAMHB; format: cell-based; settings: Pseudomonas aeruginosa, read-out: Minimum Inhibitory Concentration, P. aeruginosa ΔmexAB-OprM
# Method: as §1, §2, §3
# E. coli 901C = assay: Broth microdilution MIC in CAMHB; format: cell-based; settings: Escherichia coli; MHB; hyper-permeable E. coli 901C; read-out: Minimum Inhibitory Concentration, E. coli 901C
# Method: as §1, §2, §3
# E. coli ATCC 25922 = assay: Broth microdilution MIC in CAMHB; format: cell-based; settings: Escherichia coli, ATCC25922; MHB; E. coli ATCC 25922; read-out: Minimum Inhibitory Concentration, E. coli 25922
# Method: as §1, §2, §3
# P. aeruginosa ATCC 35151 = assay: Broth microdilution MIC in CAMHB; format: cell-based; settings: Pseudomonas aeruginosa, ATCC35151; MHB; hyper-permeable strain; read-out: Minimum Inhibitory Concentration, P. aeruginosa ATCC 35151
# Method: as §1, §2, §3
# A. baumannii ATCC 19606 = assay: Broth microdilution MIC in CAMHB; format: cell-based; settings: Acinetobacter baumannii, ATCC19606; MHB; read-out: Minimum Inhibitory Concentration, A. baumannii ATCC 19606
# Method: as §1, §2, §3
# E. coli AG100A = assay: Broth microdilution MIC in CAMHB; format: cell-based; settings: Escherichia coli, read-out: Minimum Inhibitory Concentration, E. coli AG100A
# Method: as §1, §2, §3
# [3] = tested on: K. pneumoniae UMM producing SHV-5 and KPC-2; assay: Broth microdilution MIC in CAMHB; format: cell-based; settings: Klebsiella pneumoniae, read-out: Minimum Inhibitory Concentration, K. pneumoniae UMM
# Method: as §1, §2, §3
# E. coli D22 = assay: Broth microdilution MIC in CAMHB; format: cell-based; settings: Escherichia coli; MHB; hyper-permeable E. coli D22; read-out: Minimum Inhibitory Concentration, E. coli D22
# Method: as §1, §2, §3
# E. coli AG100 = assay: Broth microdilution MIC in CAMHB; format: cell-based; settings: Escherichia coli; MHB; wild-type parent strain E. coli AG100; read-out: Minimum Inhibitory Concentration, E. coli AG100
# Method: as §1, §2, §3
# [4] = tested on: K. pneumoniae 848844 producing SHV-11 and KPC-2; assay: Broth microdilution MIC in CAMHB; format: cell-based; settings: Klebsiella pneumoniae, read-out: Minimum Inhibitory Concentration, K. pneumoniae 848844
# Method: as §1, §2, §3
# T1 sequence (P0AD68 1-577): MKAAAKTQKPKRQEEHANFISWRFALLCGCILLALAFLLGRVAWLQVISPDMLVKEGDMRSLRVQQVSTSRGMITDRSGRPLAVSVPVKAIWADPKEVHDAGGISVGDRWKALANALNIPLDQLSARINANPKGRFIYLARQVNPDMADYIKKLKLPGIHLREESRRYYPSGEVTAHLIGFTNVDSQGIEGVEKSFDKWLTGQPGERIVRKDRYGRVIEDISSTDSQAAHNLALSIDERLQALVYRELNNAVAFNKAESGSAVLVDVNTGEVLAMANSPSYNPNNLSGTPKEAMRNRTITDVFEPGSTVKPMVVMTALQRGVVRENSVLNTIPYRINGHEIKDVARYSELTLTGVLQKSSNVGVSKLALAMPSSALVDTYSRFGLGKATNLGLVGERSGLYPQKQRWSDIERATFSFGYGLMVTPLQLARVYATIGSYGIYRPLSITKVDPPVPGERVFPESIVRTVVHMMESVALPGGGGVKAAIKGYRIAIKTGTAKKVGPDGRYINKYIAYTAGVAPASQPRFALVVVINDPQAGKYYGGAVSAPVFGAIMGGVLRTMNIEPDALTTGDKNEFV
Compound,EC50 (E. coli K12 PBP3) [µM],MIC (P. aeruginosa ATCC 27853) [µg/mL],MIC [1] [µg/mL],MIC [2] [µg/mL],MIC (E. coli 901C) [µg/mL],MIC (E. coli ATCC 25922) [µg/mL],MIC (P. aeruginosa ATCC 35151) [µg/mL],MIC (A. baumannii ATCC 19606) [µg/mL],MIC (E. coli AG100A) [µg/mL],MIC [3] [µg/mL],MIC (E. coli D22) [µg/mL],MIC (E. coli AG100) [µg/mL],MIC [4] [µg/mL]
"NC1(CN2CCN(C(=O)N[C@@H](C(=O)N[C@H]3Cc4cccc(C(=O)O)c4OB3O)c3ccc(O)c(F)c3F)C(=O)C2=O)CC1 (single isomer, unassigned) [Example 236]",< 30,> 128,2 to 4,2 to 4,32 to 64,32 to 64,< 0.25,> 128,32 to 64,0.5 to 1,32 to 64,32 to 64,32 to 64
"NC1(CN2CCN(C(=O)N[C@H](C(=O)N[C@H]3Cc4cccc(C(=O)O)c4OB3O)c3ccc(O)c(F)c3F)C(=O)C2=O)CC1 (single isomer, unassigned) [Example 237]",30 to 500,> 128,32 to 64,8 to 16,> 128,> 128,0.5 to 1,> 128,> 128,2 to 4,> 128,> 128,> 128
"O=C(O)c1cccc2c1OB(O)[C@@H](NC(=O)C(NC(=O)N1CCN(CCF)C(=O)C1=O)c1ccc(O)c(F)c1F)C2 (stereo partly drawn) [Example 235, (3R)-3-(2-(2,3-difluoro-4-hydroxyphenyl)-2-(4-(2-fluoroethyl)-2,3-dioxopiperazine-1-carboxamido)acetamido)-2-hydroxy-3,4-dihydro-2H-benzo[e][1,2]oxaborinine-8-carboxylic acid]",< 30,> 128,2 to 4,8 to 16,32 to 64,8 to 16,0.5 to 1,> 128,32 to 64,< 0.25,32 to 64,32 to 64,32 to 64
"Nc1nc(C(=O)NC(C(=O)N[C@H]2Cc3cccc(C(=O)O)c3OB2O)c2c(F)cc(O)cc2F)cs1 (stereo partly drawn) [Example 251, (3R)-3-(2-(2-aminothiazole-4-carboxamido)-2-(2,6-difluoro-4-hydroxyphenyl)acetamido)-2-hydroxy-3,4-dihydro-2H-benzo[e][1,2]oxaborinine-8-carboxylic acid]",–,> 128,8 to 16,32 to 64,> 128,> 128,2 to 4,> 128,> 128,2 to 4,> 128,> 128,> 128
